From patent US20140080810A1 (Exelixis, Inc., priority 2010, published 2014)
Read-outs that look alike come from different tables or passages of the source.

Legend:
Experiment in all cases: pAKT (T308) ELISA Assay
Assay type in all cases: cell-based
[1] = test system: pAKT (T308) in SK-OV-3 cells (PI3Kα H1047R); settings: Homo sapiens, IGF1 stimulation, read-out: Cellular pAKT (T308) IC50 PI3KαH1047R SK-OV-3 IGF1
Description: (§1) In another embodiment, the pAKT ELISA Assay was performed by seeding cells onto 96-well plates (Corning, 3904) in their respective growth media at the densities listed in Table 5. Cells were incubated at 37° C., 5% CO2 for 48 h (except MDA-MB-453 cells which were cultured in the absence of CO2). Compounds were serially diluted in DMSO and subsequently diluted in serum-free DMEM. Test compounds were added to cells in serum-free DMEM at a final concentration of 0.3% DMSO and incubated for 3 h. Cells were lysed with 130 μL of ice-cold RIPA lysis buffer (50 mM Tris-HCl, pH 7.5; 0.5% sodium deoxycholic acid; 1% Triton X-100; 0.1% SDS; 150 mM NaCl) with protease and phosphatase inhibitors (1 mM EDTA, 1 mM NaF, 20 mM β-glycerophosphate, 1 mM Na-orthovanadate, Complete-Mini EDTA-free, Roche, 11836170001, and Phosphatase Inhibitor Cocktail I, Sigma, P2850), directly in 96-well plates. Cells were lysed on ice for 60-120 min at 4° C. The supernatants were added directly to capture ELISA plates previously pre-coated with rabbit anti-AKT capture antibody. ELISA assays for pAKT(T308) and total AKT were performed with the pAKT(T308) ELISA kit (Cell Signaling Technology, 7144) and AKT1 ELISA kit (Cell Signaling Technology, 7142). For the pAKT(T308) ELISA, 85 μL of cell lysate was added to each well. For the total AKT1 ELISA, 15 μL of cell lysate and 85 μL of Starting Block buffer (Pierce, 37543) were added to each well. The plates were incubated overnight at 4° C. with gentle shaking, then washed 3 times with 200 μL of TBST (20 mM Tris, pH 7.4; 150 mM NaCl; 0.1% Tween 20) for 30 s each, and incubated for 1 h with 100 μL of detection antibody (mouse anti-pAKT(T308) antibody or mouse anti-AKT1 antibody). After 3 washes with TBST, the plates were incubated with a 1:1000 dilution of a horseradish peroxidase-labeled anti-mouse IgG (Cell Signaling Technology, 7076) in 100 μL of Starting Block buffer for 0.5 h. After 3 washes with TBST, 50 μL of SuperSignal ELISA Femto substrate solution (Thermo Scientific, 37075A) and 50 μL of SuperSignal ELISA enhancer solution mixture (Thermo Scientific, 37075B) were added to each well and the plates were incubated for approximately 2 min and protected from light. The wells were measured for luminescence using a Wallac plate reader at wavelength of 560 nm. After normalization of pAKT signal to total AKT1 signal, IC50 values were determined relative to the DMSO-treated control.

[2] = test system: pAKT (T308) in MDA-MB-453 cells (PI3Kα H1047R); settings: Homo sapiens, heregulin stimulation, read-out: Cellular pAKT (T308) IC50 PI3KαH1047R MDA-MB-453 hereg
Description: as §1

[3] = test system: pAKT (T308) in T-47D cells (PI3Kα H1047R); settings: Homo sapiens, T47D, IGF1 stimulation
Description: as §1

[4] = test system: pAKT (T308) in SK-BR-3 cells (PI3Kα wt); settings: Homo sapiens, heregulin stimulation, read-out: Cellular pAKT (T308) IC50 PI3Kαwt SK-BR-3 hereg
Description: as §1

[5] = test system: pAKT (T308) in HCT 116 cells (PI3Kα H1047R); settings: Homo sapiens, IGF1 stimulation, read-out: Cellular pAKT (T308) IC50 PI3KαH1047R HCT 116 IGF1
Description: as §1

[6] = read-out: Cellular pAKT (T308) IC50 PI3KαH1047R T-47D IGF1
[7] = read-out: pAKT (T308) IC50 T-47D PI3Kα H1047R IGF1

IC50 [1] | IC50 [2] | IC50 [3, 6] | IC50 [3, 7] | IC50 [4] | IC50 [5] | SMILES
956 nM | 117 nM | 213 nM | 213 nM | 1240 nM | 400 nM | COc1ccc2c(N3CCOc4ccc(-c5cnc6nc(C)[nH]c6c5)cc4C3)nc(CN(C)C)nc2c1 [Compound 696]
1240 nM | 639 nM | 207 nM | 207 nM | 4540 nM | 719 nM | CCNc1nc2ccc(-c3ccc4c(c3)CN(c3ncnc(NCC)c3C)CCO4)cc2[nH]1 [Compound 699]
 | 18 nM | 102 nM | 102 nM | 115 nM | 130 nM | Cc1nc2cc(-c3ccc4c(c3)CN(c3nc(CN(C)C)nc(C)c3C(C)C)CCO4)cnc2[nH]1 [Compound 694]
438 nM | 118 nM | 258 nM | 258 nM | 2860 nM | 462 nM | CCNc1nc2ccc(-c3ccc4c(c3)CN(c3ccnc5cc(F)ccc35)CCO4)cc2[nH]1 [Compound 698]
 | 40 nM | 73 nM | 73 nM | 339 nM | 168 nM | Cc1nc2ncc(-c3ccc4c(c3)CN(c3nc(CN(C)C)nc5c3CC(C)(C)CC5)CCO4)cc2[nH]1 [Compound 693]
